Structures are written as SMILES.

Chain of Interleukin-1 receptor-associated kinase 1 (P51617 whole entry): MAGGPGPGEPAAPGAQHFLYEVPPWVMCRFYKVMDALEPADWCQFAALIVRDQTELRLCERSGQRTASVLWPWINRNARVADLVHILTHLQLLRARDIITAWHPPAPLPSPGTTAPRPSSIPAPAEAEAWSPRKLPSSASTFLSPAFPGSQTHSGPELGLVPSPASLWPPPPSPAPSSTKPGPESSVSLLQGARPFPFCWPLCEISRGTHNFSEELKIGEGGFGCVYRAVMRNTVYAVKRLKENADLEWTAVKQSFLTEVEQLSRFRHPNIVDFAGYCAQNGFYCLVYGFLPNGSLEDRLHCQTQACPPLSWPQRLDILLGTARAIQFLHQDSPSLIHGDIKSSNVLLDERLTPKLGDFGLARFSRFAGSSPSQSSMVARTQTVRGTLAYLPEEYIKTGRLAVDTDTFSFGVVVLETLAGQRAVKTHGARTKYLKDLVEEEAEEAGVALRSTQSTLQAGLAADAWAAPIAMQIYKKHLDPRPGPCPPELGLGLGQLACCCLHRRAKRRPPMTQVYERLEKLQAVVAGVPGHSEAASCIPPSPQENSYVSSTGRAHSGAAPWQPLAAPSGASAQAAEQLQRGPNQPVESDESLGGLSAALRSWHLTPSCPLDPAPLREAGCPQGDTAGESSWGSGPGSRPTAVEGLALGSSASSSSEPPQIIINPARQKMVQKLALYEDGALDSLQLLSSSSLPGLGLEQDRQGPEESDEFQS

In one test the target is T1, Interleukin-1 receptor-associated kinase 4 (Homo sapiens) (UniProt Q9NWZ3).
T1 sequence (whole entry): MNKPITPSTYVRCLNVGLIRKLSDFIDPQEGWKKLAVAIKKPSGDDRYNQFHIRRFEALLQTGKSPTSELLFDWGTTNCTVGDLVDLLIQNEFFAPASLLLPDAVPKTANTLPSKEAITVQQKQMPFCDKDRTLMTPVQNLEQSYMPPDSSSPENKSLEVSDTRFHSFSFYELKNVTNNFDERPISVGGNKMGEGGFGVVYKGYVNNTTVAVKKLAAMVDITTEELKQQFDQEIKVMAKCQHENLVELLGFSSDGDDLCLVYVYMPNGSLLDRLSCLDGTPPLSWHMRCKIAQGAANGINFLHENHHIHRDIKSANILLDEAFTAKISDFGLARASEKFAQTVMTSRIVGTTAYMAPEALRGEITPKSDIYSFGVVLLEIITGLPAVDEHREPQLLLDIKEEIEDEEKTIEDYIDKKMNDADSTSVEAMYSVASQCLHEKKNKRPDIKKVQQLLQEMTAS
Kind of test: Inhibition of IRAK4 at 30 uM.
Settings: not given
In general, inhibition refers to the change of the read-out against control, counted positive when it falls. Compound `O=C(O)Cn1c(NC(=O)c2cccc([N+](=O)[O-])c2)nc2ccccc21` registered an inhibition of 38%.

Consider `O=C(Nc1nc2c(F)c(F)ccc2[nH]1)c1cccc([N+](=O)[O-])c1`, for which the inhibition was determined as 24%.

The compound `O=C(Nc1nc2cc([N+](=O)[O-])ccc2[nH]1)c1cccc([N+](=O)[O-])c1` yielded an inhibition of 29%.

With `O=C(Nc1nc2ccccc2s1)c1cccc([N+](=O)[O-])c1`, the inhibition came out at 11%.

Take `O=C(Nc1nc2ccccc2[nH]1)c1ccccc1`: the inhibition was 11%.

Regarding `O=C(Nc1nc2ccc[nH]c-2n1)c1cccc([N+](=O)[O-])c1`, the inhibition amounted to 39%.

On to `CCCCn1c(NC(=O)c2ccc([N+](=O)[O-])cc2)nc2ccccc21`, for which the inhibition was 8%.

Regarding `O=C(Nc1cccc([N+](=O)[O-])c1)Nc1nc2ccccc2[nH]1`, the inhibition was found to be 15%.

`O=[N+]([O-])c1cccc(S(=O)(=O)Nc2nc3ccccc3[nH]2)c1` registered an inhibition of 45%.

In the case of `O=C(Nc1nc2c([N+](=O)[O-])cccc2[nH]1)c1cccc([N+](=O)[O-])c1`, the inhibition stood at 25%.

Consider `O=[N+]([O-])c1cccc(CNc2nc3ccccc3[nH]2)c1`, for which the inhibition was found to be 8%.

As for `O=C(Nc1nc2cc(Cl)c(Cl)cc2[nH]1)c1cccc([N+](=O)[O-])c1`, the inhibition was determined as 10%.

Another test addresses T2, Interleukin-1 receptor-associated kinase 4 (Homo sapiens, UniProt Q9NWZ3).
T2 sequence (Q9NWZ3 whole entry): T1 sequence (whole entry)
Nature of the test: Inhibition of IRAK4.
Settings: not given
What is called IC50 is the point on the concentration scale where inhibition reaches its midpoint. Low readings indicate greater potency, high ones weaker potency. `CCCS(=O)(=O)c1ccc2[nH]c(NC(=O)c3cccc([N+](=O)[O-])c3)nc2c1` had an IC50 of 4 µM.

`C=CCN(C(=O)c1cccc([N+](=O)[O-])c1)c1nc2ccccc2n1CC=C` displayed an IC50 greater than 30 µM.

`CCCCn1c(NC(=O)c2ccc(OC)cc2)nc2ccccc21` yielded an IC50 of 6.5 µM.

Compound `COc1ccc2nc(NC(=O)c3cccc([N+](=O)[O-])c3)[nH]c2c1` showed an IC50 of 1.5 µM.

Compound `O=C(Nc1nc2ccccc2n1CCN1CCOCC1)c1cccc([N+](=O)[O-])c1` came in with an IC50 of 0.2 µM.

`N#Cc1cccc(C(=O)Nc2nc3ccccc3[nH]2)c1`: the IC50 was found to be 13.6 µM.

For `COCCn1c(NC(=O)c2cccc([N+](=O)[O-])c2)nc2ccccc21`, the IC50 was determined as 1 µM.

As for `O=C(Nc1nc2ccccc2n1C1CCOC1=O)c1cccc([N+](=O)[O-])c1` (stereo unspecified), the IC50 came out at 0.55 µM.

`O=C(Nc1nc2ccc(F)cc2[nH]1)c1cccc([N+](=O)[O-])c1`: half-maximal inhibition (IC50) required 4.5 µM.

In turn, `CN(C(=O)c1cccc([N+](=O)[O-])c1)c1nc2ccccc2n1C1CCOC1=O` (stereo unspecified) gave an IC50 greater than 30 µM.

As for `C=CCn1c(NC(=O)c2cccc([N+](=O)[O-])c2)nc2ccccc21`, the IC50 came to 1 µM.

`CC(C)n1c(NC(=O)c2cccc([N+](=O)[O-])c2)nc2ccccc21`: 1 µM corresponded to half-maximal inhibition (IC50).

Compound `CN(C)CCCn1c(NC(=O)c2cccc([N+](=O)[O-])c2)nc2ccccc21` returned an IC50 of 4 µM.

Compound `CCOCCn1c(NC(=O)c2cccc([N+](=O)[O-])c2)nc2ccccc21` had an IC50 of 2 µM.

In turn, `CCOC(=O)CCn1c(NC(=O)c2cccc([N+](=O)[O-])c2)nc2ccccc21` showed an IC50 of 1 µM.

The compound `CCOC(=O)Cn1c(NC(=O)c2cccc([N+](=O)[O-])c2)nc2ccccc21` showed an IC50 of 0.4 µM.

In turn, `O=C(Nc1nc2ccccc2n1CCC1CCC1)c1cccc([N+](=O)[O-])c1` yielded an IC50 of 2 µM.

As to `CCCCn1c(NC(=O)c2cccc([N+](=O)[O-])c2)nc2ccccc21`, the IC50 was 2 µM.

Take `CCCCCn1c(NC(=O)c2cccc([N+](=O)[O-])c2)nc2ccccc21`: the midpoint of inhibition, the IC50, lay at 20 µM.

In the case of `Cc1ccc(C(=O)Nc2nc3ccccc3[nH]2)cc1[N+](=O)[O-]`, half-maximal inhibition (IC50) was put at 12 µM.

Regarding `O=C(Nc1nc2ccccc2[nH]1)c1ccc(F)c([N+](=O)[O-])c1`, half-maximal inhibition (IC50) was put at 6.5 µM.

Regarding `CCN(CC)CCn1c(NC(=O)c2cccc([N+](=O)[O-])c2)nc2ccccc21`, the IC50 is 3 µM.

`O=C(Nc1nc2ccccc2n1CCO)c1cccc([N+](=O)[O-])c1` had an IC50 of 0.4 µM.

Compound `Cc1cc2nc(NC(=O)c3cccc([N+](=O)[O-])c3)[nH]c2cc1C` yielded an IC50 of 8 µM.

`COC(=O)c1ccc2[nH]c(NC(=O)c3cccc([N+](=O)[O-])c3)nc2c1` registered an IC50 of 25 µM.

In the case of `Cc1ccc2nc(NC(=O)c3cccc([N+](=O)[O-])c3)[nH]c2c1`, inhibition was half-maximal at 0.8 µM (IC50).

`O=C(Nc1nc2ccc(Cl)cc2[nH]1)c1cccc([N+](=O)[O-])c1` returned an IC50 of 6 µM.

Regarding `O=C(Nc1nc2ccccc2n1CC1CCCO1)c1cccc([N+](=O)[O-])c1` (stereo unspecified), the IC50 was found to be 0.5 µM.

The compound `O=C(Nc1nc2ccccc2[nH]1)c1cccc([N+](=O)[O-])c1` showed an IC50 of 4 µM.

`O=C(Nc1nc2cc(F)c(F)cc2[nH]1)c1cccc([N+](=O)[O-])c1` registered an IC50 of 30 µM.

Take `O=C(O)CCn1c(NC(=O)c2cccc([N+](=O)[O-])c2)nc2ccccc21`: half-maximal inhibition (IC50) required 4 µM.

In turn, `CCCCn1c(NC(=O)c2cccc(Cl)c2)nc2ccccc21` came in with an IC50 of 30 µM.

The compound `O=C(Nc1nc2cc[nH]cc-2n1)c1cccc([N+](=O)[O-])c1` showed an IC50 of 30 µM.

`CCCCn1c(NC(=O)c2ccc(Cl)c(Cl)c2)nc2ccccc21` yielded an IC50 of 3 µM.

Compound `CCn1c(NC(=O)c2cccc([N+](=O)[O-])c2)nc2ccccc21` had an IC50 of 2 µM.

The next test deals with HeLa. Kind of test: Antiproliferative activity against human HeLa cell line after 72 hrs. The test is classed as functional. Conditions: read-out: ED50 (the source's name).
For `O=C(Nc1nc2ccccc2n1CCN1CCOCC1)c1cccc([N+](=O)[O-])c1`, the EC50 is greater than 30 µM.

As to `CCOC(=O)Cn1c(NC(=O)c2cccc([N+](=O)[O-])c2)nc2ccccc21`, the EC50 is greater than 30 µM.

A further test concerns the target Interleukin-1 receptor-associated kinase 1 (Homo sapiens, UniProt P51617). Kind of test: Inhibition of IRAK1.
Settings: not given
The compound `O=C(Nc1nc2ccccc2n1CCN1CCOCC1)c1cccc([N+](=O)[O-])c1` displayed an IC50 of 0.3 µM.

The compound `CCOC(=O)Cn1c(NC(=O)c2cccc([N+](=O)[O-])c2)nc2ccccc21` gave an IC50 of 0.75 µM.

The values are drawn from ChEMBL document CHEMBL1147720, “Discovery and initial SAR of inhibitors of interleukin-1 receptor-associated kinase-4” (Bioorg Med Chem Lett, 2006).
